In data set [1] the test system is Plasmodium falciparum. Put plainly: Antiplasmodial activity chloroquine-resistant Plasmodium falciparum K1 infected in human A+ erythrocytes assessed as reduction of [3H]hypoxanthine incorporation after 24 hrs by scintillation counting. The class given is functional, organism-based.
Data set [2] relates to Plasmodium falciparum. Put plainly: Antiplasmodial activity chloroquine-sensitive Plasmodium falciparum 3D7 infected in human A+ erythrocytes assessed as reduction of [3H]hypoxanthine incorporation after 24 hrs by scintillation counting. The class given is functional, organism-based.
The test system of data set [3] is Plasmodium falciparum. The experiment in a line: Antiplasmodial activity chloroquine-resistant Plasmodium falciparum W2 using YOYO-1 staining after 48 hrs by FACS analysis. The data set is classed as functional, organism-based. The conditions noted are these: W2, 48 h.
Data set [4] is described as follows: physchem. The conditions noted are these: 0.01 M HCl, pH 2.
Data set [5] in a line: physchem. The conditions noted are these: phosphate buffered saline, pH 7.4.
Another data set deals with CHO. Put plainly: Cytotoxicity against CHO cells by MTT assay. The class given is cell-based. The conditions noted are these: Cricetulus griseus. (Tetrazolium assays rely on reduction of a dye to a coloured formazan, in cell work by metabolically active cells.)

Values after ≈ are worked out from the molar mass of the structure shown.

The values below come from ChEMBL document CHEMBL2412968, “Tetrazole-based deoxyamodiaquines: synthesis, ADME/PK profiling and pharmacological evaluation as potential antimalarial agents” (Bioorg Med Chem, 2013).

A word on the IC50: it is the midpoint of a concentration-inhibition curve. With `CN(C)C(c1ccccc1Nc1ccnc2cc(Cl)ccc12)c1nnnn1C(C)(C)C` (stereo not given), the IC50 is 3500 nM in the data set on Plasmodium falciparum [1], 3500 nM in the data set with Plasmodium falciparum [2] and 3380 nM with Plasmodium falciparum [3].

With `CN(C)C(c1ccc(Nc2ccnc3cc(Cl)ccc23)cc1)c1nnnn1C(C)(C)C` (stereo not given), the IC50 in the data set with Plasmodium falciparum [1] was found to be 12 nM; with Plasmodium falciparum [2], 12 nM; in the data set with Plasmodium falciparum [3], 40 nM.

Usually solubility (kinetic) stands for solubility judged after dilution from a stock solution rather than from solid. Consider `CN(C)C(c1cccc(Nc2ccnc3cc(Cl)ccc23)c1)c1nnn[nH]1` (stereo not given), for which the IC50 in the data set on Plasmodium falciparum [1] was determined as 2980 nM; in the data set on Plasmodium falciparum [2], 487 nM; with Plasmodium falciparum [3], 1170 nM. In addition, the values for the kinetic solubility at 2 h in the data set “physchem [4]” and in “physchem [5]” were more than 200 µM and 72.6 µM (≈ 27.6 µg/mL), respectively.

As to `CCN(CC)C(c1cccc(Nc2ccnc3cc(Cl)ccc23)c1)c1nnn[nH]1` (stereo not given), the IC50 with Plasmodium falciparum [1] came to 54 nM; in the data set on Plasmodium falciparum [2], 164 nM; with Plasmodium falciparum [3] it was 475 nM. Besides, the solubility (kinetic) at 2 h in “physchem [4]” is more than 200 µM; in “physchem [5]”, 149 µM (≈ 60.8 µg/mL).

For the compound `Clc1ccc2c(Nc3cccc(C(c4nnn[nH]4)N4CCCC4)c3)ccnc2c1` (stereo not given), the IC50 stood at 49 nM with Plasmodium falciparum [1], 1100 nM with Plasmodium falciparum [2] and 181 nM with Plasmodium falciparum [3]. The solubility (kinetic) at 2 h in the data set “physchem [4]” was more than 200 µM; in the data set “physchem [5]”, 150 µM (≈ 60.9 µg/mL).

Turning to `Clc1ccc2c(Nc3cccc(C(c4nnn[nH]4)N4CCCCC4)c3)ccnc2c1` (stereo not given), the IC50 in the data set on Plasmodium falciparum [1] was determined as 1260 nM; with Plasmodium falciparum [2] it was 286 nM; in the data set with Plasmodium falciparum [3], 487 nM. Also, the solubility (kinetic) at 2 h in “physchem [4]” was more than 200 µM; in “physchem [5]”, 122 µM (≈ 51.2 µg/mL).

Consider `Clc1ccc2c(Nc3cccc(C(c4nnn[nH]4)N4CCOCC4)c3)ccnc2c1` (stereo not given), for which the IC50 with Plasmodium falciparum [1] was 1970 nM; in the data set on Plasmodium falciparum [2], 2070 nM; in the data set on Plasmodium falciparum [3], 1390 nM.

In turn, `CC[C@H]1CN2CCc3cc(OC)c(OC)cc3[C@@H]2C[C@@H]1C[C@H]1NCCc2cc(OC)c(OC)cc21` [EMETINE] had an IC50 in the data set with CHO of 129 nM.
